Key:
Test in all cases: relative viability (nuclei count vs DMSO), 5 days (fraction); higher = more cells survive
Zebularine + Dasatinib = compound: O=c1ncccn1[C@@H]1O[C@H](CO)[C@@H](O)[C@H]1O [Zebularine] + Cc1nc(Nc2ncc(C(=O)Nc3c(C)cccc3Cl)s2)cc(N2CCN(CCO)CC2)n1 [Dasatinib] (partner 0.075 µM)
Method in brief: (§1)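 Lung cancer cell lines, seeded in 1536-well plates, were treated the following day by pin tool with a single drug or with five library-drug doses (not always all listed) in √10 steps on top of a fixed anchor-drug dose. Cells were fixed and nuclei stained in one step after 5 days, and nuclei were counted. Relative viability is the nuclei count for treated wells divided by that for vehicle wells, reported as medians of duplicate plates.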

Zebularine + Luminespib = compound: O=c1ncccn1[C@@H]1O[C@H](CO)[C@@H](O)[C@H]1O [Zebularine] + CCNC(=O)c1noc(-c2cc(C(C)C)c(O)cc2O)c1-c1ccc(CN2CCOCC2)cc1 [Luminespib] (partner 0.01 µM)
Method in brief: as §1

BI-D1870 + Navitoclax = compound: CC(C)CCN1c2nc(Nc3cc(F)c(O)c(F)c3)ncc2N(C)C(=O)C1C [BI-D1870] + CC1(C)CCC(c2ccc(Cl)cc2)=C(CN2CCN(c3ccc(C(=O)NS(=O)(=O)c4ccc(N[C@H](CCN5CCOCC5)CSc5ccccc5)c(S(=O)(=O)C(F)(F)F)c4)cc3)CC2)C1 [Navitoclax] (partner 0.5 µM)
Method in brief: as §1

BI-D1870 + Lapatinib = compound: CC(C)CCN1c2nc(Nc3cc(F)c(O)c(F)c3)ncc2N(C)C(=O)C1C [BI-D1870] + CS(=O)(=O)CCNCc1ccc(-c2ccc3ncnc(Nc4ccc(OCc5cccc(F)c5)c(Cl)c4)c3c2)o1 [Lapatinib] (partner 2 µM)
Method in brief: as §1

Row | Cell Line | relative viability (Zebularine + Dasatinib; first compound 1 µM) | relative viability (Zebularine + Dasatinib; first compound 3.162 µM) | relative viability (Zebularine + Dasatinib; first compound 10 µM) | relative viability (Zebularine + Dasatinib; first compound 31.62 µM) | relative viability (Zebularine + Dasatinib; first compound 100 µM) | relative viability (Zebularine + Luminespib; first compound 1 µM) | relative viability (Zebularine + Luminespib; first compound 3.162 µM) | relative viability (Zebularine + Luminespib; first compound 10 µM) | relative viability (Zebularine + Luminespib; first compound 31.62 µM) | relative viability (Zebularine + Luminespib; first compound 100 µM) | relative viability (BI-D1870 + Navitoclax; first compound 0.04 µM) | relative viability (BI-D1870 + Navitoclax; first compound 0.1265 µM) | relative viability (BI-D1870 + Navitoclax; first compound 0.4 µM) | relative viability (BI-D1870 + Navitoclax; first compound 1.265 µM) | relative viability (BI-D1870 + Navitoclax; first compound 4 µM) | relative viability (BI-D1870 + Lapatinib; first compound 0.04 µM) | relative viability (BI-D1870 + Lapatinib; first compound 0.1265 µM) | relative viability (BI-D1870 + Lapatinib; first compound 0.4 µM) | relative viability (BI-D1870 + Lapatinib; first compound 1.265 µM) | relative viability (BI-D1870 + Lapatinib; first compound 4 µM)
1 | NCI-H1975 | 0.328 | 0.408 | 0.253 | 0.247 | 0.173 | 0.249 | 0.196 | 0.241 | 0.199 | 0.14 | 1.12 | 1.22 | 1.14 | 1.06 | 0.54 | 1.1 | 0.865 | 0.858 | 0.863 | 0.464
2 | NCI-H1623 | 0.632 | 0.47 | 0.459 | 0.53 | 0.386 | 0.629 | 0.503 | 0.592 | 0.468 | 0.293 |  |  |  |  |  |  |  |  |  | 
3 | HCC-44 |  |  |  |  |  | 1.17 | 1.15 | 0.746 | 0.374 | 0.388 | 1.04 | 0.944 | 0.999 | 1.1 | 0.847 | 1.05 | 1.04 | 1.02 | 0.961 | 1.1
4 | NCI-H1703 |  |  |  |  |  |  |  |  |  |  | 1.1 | 0.846 | 1.02 | 1.28 | 0.745 | 1.07 | 0.732 | 1.29 | 1.11 | 0.796
5 | Calu-6 |  |  |  |  |  |  |  |  |  |  | 0.989 | 0.829 | 0.823 | 0.671 | 0.352 | 1.07 | 0.977 | 1.09 | 0.931 | 0.868
6 | EBC-1 |  |  |  |  |  |  |  |  |  |  | 0.433 | 0.424 | 0.367 | 0.194 | 0.134 | 0.195 | 0.19 | 0.205 | 0.188 | 0.158
7 | NCI-H358 | 0.169 | 0.134 | 0.194 | 0.174 | 0.105 | 0.355 | 0.462 | 0.251 | 0.269 | 0.184 |  |  |  |  |  | 0.501 | 0.413 | 0.551 | 0.504 | 0.556
8 | HCC-78 | 0.385 | 0.428 | 0.22 | 0.37 | 0.278 |  |  |  |  |  | 0.736 | 0.825 | 0.81 | 0.987 | 0.778 | 0.827 | 0.597 | 0.715 | 1.13 | 0.856
9 | IA-LM |  |  |  |  |  |  |  |  |  |  | 0.818 | 0.926 | 0.764 | 0.577 | 0.19 | 0.972 | 0.906 | 0.862 | 0.614 | 0.213
10 | NCI-H650 | 0.462 | 0.486 | 0.403 | 0.397 | 0.268 | 0.776 | 0.742 | 0.595 | 0.355 | 0.224 |  |  |  |  |  | 1.04 | 0.726 | 0.836 | 0.975 | 0.879
11 | ChaGo-K-1 | 0.619 | 0.557 | 0.312 | 0.269 | 0.183 | 0.657 | 0.508 | 0.212 | 0.221 | 0.217 | 0.94 | 0.976 | 0.808 | 1.03 | 0.654 |  |  |  |  | 
12 | NCI-H2342 | 0.364 | 0.337 | 0.268 | 0.334 | 0.341 | 0.835 | 0.783 | 0.621 | 0.669 | 0.576 |  |  |  |  |  |  |  |  |  | 
13 | NCI-H1299 |  |  |  |  |  |  |  |  |  |  | 1.04 | 1 | 1.09 | 1.01 | 0.843 | 0.903 | 0.957 | 0.95 | 0.915 | 0.743
14 | SW 900 | 0.647 | 0.498 | 0.328 | 0.926 | 0.484 | 0.187 | 0.21 | 0.218 | 0.162 | 0.137 |  |  |  |  |  |  |  |  |  | 
15 | NCI-H522 | 0.859 | 0.886 | 0.473 | 0.933 | 0.938 | 0.928 | 0.881 | 0.99 | 0.776 | 0.665 |  |  |  |  |  |  |  |  |  | 
16 | HCC-366 | 0.617 | 0.667 | 0.526 | 0.721 | 0.218 |  |  |  |  |  | 1.15 | 0.964 | 1.08 | 1.01 | 1.05 | 1.09 | 1.01 | 1 | 1.21 | 0.389
17 | A549 |  |  |  |  |  |  |  |  |  |  | 1.31 | 1.15 | 1.28 | 1.15 | 0.123 | 1.16 | 0.875 | 1.06 | 0.908 | 0.992
18 | NCI-H661 | 0.833 | 0.918 | 0.868 | 1.05 | 0.819 | 1.02 | 0.948 | 0.686 | 1.01 | 0.895 |  |  |  |  |  | 0.56 | 0.406 | 0.45 | 0.442 | 0.499
19 | NCI-H1563 | 0.498 | 0.528 | 0.527 | 0.406 | 0.466 | 0.519 | 0.517 | 0.518 | 0.521 | 0.514 |  |  |  |  |  | 1.08 | 0.898 | 0.817 | 0.9 | 0.917
20 | ABC-1 | 0.637 | 0.352 | 0.454 | 0.435 | 0.351 | 0.476 |  | 0.458 | 0.317 | 0.364 |  |  |  |  |  | 1.19 | 0.952 | 1.05 | 1.28 | 1.02
21 | LCLC-103H | 0.485 | 0.479 | 0.251 | 0.475 | 0.44 | 1.07 | 0.996 | 0.696 | 0.705 | 0.475 |  |  |  |  |  |  |  |  |  | 
22 | NCI-H441 | 0.705 | 0.619 | 0.394 | 0.41 | 0.271 | 0.301 | 0.266 | 0.298 | 0.244 | 0.225 | 0.478 | 0.575 | 0.692 | 0.642 | 0.338 |  |  |  |  | 
